Measured values as given in patent US20240424426A1, “SOLVENTS FOR SELECTIVE COMPLEXATION OF METAL CATIONS” (THE BOARD OF TRUSTEES OF THE UNIVERSITY OF ALABAMA, priority 2023, published 2024).

How the values were obtained:
[1] = Liquid-liquid extraction of Li^+ from aqueous LiCl/NaCl solution, ion-selective electrode analysis; conditions: 3 mL neat compound mixed with 3 mL aqueous solution containing 100 ppm LiCl and 100 ppm NaCl; aqueous phase analyzed by ion-selective electrode
Method: (§1) 3 ml of the compound [F·Me·Me] was added neat to 3 mL of an aqueous solution containing 100 ppm LiCl and 100 ppm NaCl. After vigorous mixing of the organic and aqueous phases in a separatory funnel, the phases were separated, and the aqueous phase was analyzed using ion-selective electrodes for both Li^+ and Na^+.

[2] = Liquid-liquid extraction of Na^+ from aqueous LiCl/NaCl solution, ion-selective electrode analysis; conditions: 3 mL neat compound mixed with 3 mL aqueous solution containing 100 ppm LiCl and 100 ppm NaCl; aqueous phase analyzed by ion-selective electrode
Method: as §1

COCCOCC(COCC(F)(F)F)OCCOC (centres unmarked) [[F·Me·Me]]
Li^+ extracted by the compound [1]: 26.6% | Na^+ extracted by the compound [2]: 7.3%
